Data reported in patent US8889902B2, “Acetylsalicylic acid salts” (priority 2009, dated 2014).
Marks after values point to notes of the source that are not given here.

Assays:
[1] = test system: abdominal constrictions in writhing test model; test: Mouse writhing test (acetic acid i.p.); type: in vivo, mice; details: for No. of constrictions: 10 min observation
Description: In investigating the analgesic, anti-inflammatory and antipyretic effects of MASA methods widely used in evaluation of NSAIDs were employed. Mongrel white laboratory mice and Wistar rats were used in experiments. Animals were kept in groups of 7-8 in adequate cages in climatized rooms at 22±1° C., relative humidity 60±5% and 12/12-hour light/darkness cycle with free access to feed and water.
Aqueous solutions of test substances were prepared ex tempore. In each experimental series a control group was used that received an identical volume of water p.o.
Nociceptive reaction was evaluated by chemical irritation method—writhing test (Charaborty A et al, Indian J of Pharmacology 2004; 36(3):148-150). Animals received i.p. 0.25 ml of 0.75% aqueous acetic acid solution: After the injection animals were placed separately in special boxes and observed for 10 minutes. The number of abdominal constrictions was registered. Analgesic activity was manifested by reduction of the number of abdominal constrictions in the 10 minutes period. Test substances were introduced 30 min before the irritating agent. The level of analgesia was expressed as analgesic index calculated as follows: A=(Cc−Ct)/Cc·100%, where A—Analgesic index Cc—number of contractions in control group, Ct—number of contractions in the test group.

[2] = test system: response to thermal irritation (hot plate); test: Mouse hot plate test; type: in vivo, mice
[3] = test system: hyperthermia induced by intramuscular injection of pyrogenal; test: Antipyretic activity, pyrogenal hyperthermia (curative mode); type: in vivo, rats
Description: The antipyretic effect of test substances in therapeutic (curative) mode was investigated on 48 rats with body mass 182-205 g, with hyperthermia induction by injecting pyrogenal in dose 100 μg (Shwarz G Y, Syubaev R D, Vedomosti NCEG lekarstvennyh sredstv MZ RF 2000; 1:44-50 (Rus). Test substances were given p.o. 2 hours after injection of pyrogenal immediately after the recording of elevated body temperature. Rectal temperature was measured by electric thermometer TERMO before the i.m. injection of pyrogenal (baseline temperature), at the peak of hyperthermia (pyrogenal control) and 30 min. after treatment with test substance, i.e., 2½ hours after the injection of pyrogenal. Ambient temperature in laboratory was kept at 20-22° C.

carrageneen paw oedema [4] = test: Acute inflammatory oedema model (carrageneen test); type: in vivo, rats; details: 4 h
Description: Experiments were conducted using carrageneen test (Winter C et al, Proc Soc Exptl Biol and Med 1962; III(3):544-547. Wei Jia et al, Journal of Ethnopharmacology 2003(89):139-141; Sutharson Lingadurai et al, African Journal of traditional, complementary and alternative medicines, 2007, 4(4):411-416) on 42 rats with body mass of 226-274 g. Single injection of carrageneen (Sigma) solution (1%) in saline (0.1 ml) was introduced in rat hind leg paw. Test substances were introduced p.o. (through catheter into rat stomach) 30 min. after the injection of carrageneen. The volume of paw was measured by oncometer at baseline and 4 hours after the injection of carrageneen.
The percentage of prevention (inhibition of oedema) was calculated according to formula: P(%)=(1−Vo/Vc)×100, where P—Prevention in % (inhibition of oedema) Vo—difference between the paw volume at baseline and at experimental conditions; Vc—analogical difference in control group.

carrageneen paw oedema [5] = test: Carrageneen oedema, preventive mode; type: in vivo, rats; details: preventive 6 times, 4 h
Description: The […] oedema was investigated by established method ([…], Patol Fiziol Eksp Ter, 2002(2):24-7 (Rus) on 42 rats with body mass of 178-220 g: […] The prevention index was calculated as indicated in previous section.

rat ear skin temperature = test: Ear skin temperature rise caused by NA, s.c. administration; type: in vivo, Wistar rats
Description: Male Wistar rats (280-330 g) were used. Animals were held in groups of 6 in climatized rooms at 22±1° C., relative humidity 60±5%, and 12/12-hour light/dark cycle with free access to drinking water and feed (R3—Lactamin AB, Sweden). For registration of changes in skin temperature of intact rats contactless temperature recording method was used (Papaliodis D et al, Br J Pharmacol 2008; 153:1382-1387). Temperature measurements were performed with a hand-held infrared thermometer (Model Proscan 510, TFA-Dostman). Animals were habituated to handling and to the infrared probe for 3 days before use. Temperature readings from the dorsal side of each ear were recorded without anaesthesia at beginning and during experiment. The ear temperature was measured every 5 min. for a period of up to 60 min. The animals were returned to their cages between measurements. NA, MD and MASA were dissolved in saline and pH was corrected immediately before usage. LA (MK 0524, Cayman Chemicals) was first dissolved in DMSO and then freshly diluted with 0.9% NaCl, on each day of the experiment. The rate of NA and LA combination was based on Summary of Product Characteristics for Tredaptive™ (nicotinic acid/laropiprant) 1000 mg/20 mg modified-release tablets.
The influence of LA, MD or MASA alone on skin temperature was checked. Each investigated compound was introduced s.c. simultaneously with NA as LA+NA [0] or 30 min in advance to NA as LA+NA [30].

[6] = 100 mg/kg p.o. 30 min after carrageneen
[7] = 75 mg/kg p.o. 30 min after carrageneen
[8] = 150 mg/kg p.o. 30 min after carrageneen
[9] = 300 mg/kg p.o. 30 min after carrageneen

Structure (SMILES): CC(=O)Oc1ccccc1C(=O)O [ASA, acetylsalicylic acid]
- Analgesic index ([1]; 50 mg/kg p.o.): 7.1
- Animals with positive reaction/total number ([1]; 50 mg/kg p.o. 30 min before acetic acid): 6/8
- No. of constrictions ([1]; 50 mg/kg p.o.): 5.75 ± 1.32***^$$$
- Latent period at 30 min after introduction of test substance ([2]; 50 mg/kg p.o.): 5.4 ± 0.46 s
- Latent period at 60 min after introduction of test substance ([2]; 50 mg/kg p.o.): 9.7 ± 1.05 s
- Rectal temperature at 30 minutes after treatment ([3]; 50 mg/kg p.o. 2 h after pyrogenal): 36.51 ± 0.15*^$ ° C.
- Index, % (inhibition of oedema) (carrageneen paw oedema [4]; [6]): 66%
- Volume of paw after injection of carrageneen (carrageneen paw oedema [4]; [6]): 1.97 ± 0.10 mL
- Reduction in % (oedema) (carrageneen paw oedema [5]; 50 mg/kg p.o.): 70%
- Volume of paw after injection of carrageneen (carrageneen paw oedema [5]; 50 mg/kg p.o.): 1.55 ± 0.04 mL

Structure (SMILES): CC(=O)Oc1ccccc1C(=O)[O-].C[N+](C)(C)NCCC(=O)O [MASA, 3-(trimethylammonioamino)propanoate Acetylsalicylic Acid Addition Salt]
- Analgesic index ([1]; 75 mg/kg p.o.): 4.5
- Animals with positive reaction/total number ([1]; 75 mg/kg p.o. 30 min before acetic acid): 8/8
- No. of constrictions ([1]; 75 mg/kg p.o.): 12.13 ± 0.61**^$$
- Analgesic index ([1]; 150 mg/kg p.o.): 5.2
- Animals with positive reaction/total number ([1]; 150 mg/kg p.o. 30 min before acetic acid): 7/8
- No. of constrictions ([1]; 150 mg/kg p.o.): 10.63 ± 1.10**^$$
- Analgesic index ([1]; 300 mg/kg p.o.): 7.3
- Animals with positive reaction/total number ([1]; 300 mg/kg p.o. 30 min before acetic acid): 5/8
- No. of constrictions ([1]; 300 mg/kg p.o.): 6.00 ± 1.39***^$$$
- Latent period at 30 min after introduction of test substance ([2]; 75 mg/kg p.o.): 5.4 ± 0.38 s
- Latent period at 60 min after introduction of test substance ([2]; 75 mg/kg p.o.): 4.6 ± 0.26 s
- Latent period at 30 min after introduction of test substance ([2]; 150 mg/kg p.o.): 9.5 ± 0.53***^&&& s
- Latent period at 60 min after introduction of test substance ([2]; 150 mg/kg p.o.): 7.1 ± 0.55 s
- Latent period at 30 min after introduction of test substance ([2]; 300 mg/kg p.o.): 9.6 ± 1.12**^& s
- Latent period at 60 min after introduction of test substance ([2]; 300 mg/kg p.o.): 8.6 ± 0.60 s
- Rectal temperature at 30 minutes after treatment ([3]; 75 mg/kg p.o. 2 h after pyrogenal): 36.90 ± 0.07 °C
- Rectal temperature at 30 minutes after treatment ([3]; 150 mg/kg p.o. 2 h after pyrogenal): 36.75 ± 0.09^#$ ° C.
- Rectal temperature at 30 minutes after treatment ([3]; 300 mg/kg p.o. 2 h after pyrogenal): 36.40 ± 0.11*^$$% ° C.
- Index, % (inhibition of oedema) (carrageneen paw oedema [4]; [7]): 18%
- Volume of paw after injection of carrageneen (carrageneen paw oedema [4]; [7]): 2.51 ± 0.11 mL
- Index, % (inhibition of oedema) (carrageneen paw oedema [4]; [8]): 93%
- Volume of paw after injection of carrageneen (carrageneen paw oedema [4]; [8]): 1.54 ± 0.15***^$& ml
- Index, % (inhibition of oedema) (carrageneen paw oedema [4]; [9]): 91%
- Volume of paw after injection of carrageneen (carrageneen paw oedema [4]; [9]): 1.79 ± 0.15 mL
- Reduction in % (oedema) (carrageneen paw oedema [5]; 150 mg/kg p.o.): 94%
- Volume of paw after injection of carrageneen (carrageneen paw oedema [5]; 150 mg/kg p.o.): 1.40 ± 0.09**^$ ml
- Reduction in % (oedema) (carrageneen paw oedema [5]; 300 mg/kg p.o.): 86%
- Volume of paw after injection of carrageneen (carrageneen paw oedema [5]; 300 mg/kg p.o.): 1.41 ± 0.04**^$ ml
- Maximum temperature (rat ear skin temperature; 45 mg/kg s.c. alone): 29.2 ± 0.38^$$$ ° C.

Structure (SMILES): C[N+](C)(C)NCCC(=O)[O-].O.O [MD, 3-(Trimethylammonioamino)propanoate dihydrate]
- Analgesic index ([1]; 100 mg/kg p.o.): −0.4
- Animals with positive reaction/total number ([1]; 100 mg/kg p.o. 30 min before acetic acid): 8/8
- No. of constrictions ([1]; 100 mg/kg p.o.): 22.10 ± 1.47
- Latent period at 30 min after introduction of test substance ([2]; 100 mg/kg p.o.): 9.5 ± 0.68***^&& s
- Latent period at 60 min after introduction of test substance ([2]; 100 mg/kg p.o.): 8.3 ± 0.53 s
- Rectal temperature at 30 minutes after treatment ([3]; 100 mg/kg p.o. 2 h after pyrogenal): 37.10 ± 0.14 °C
- Index, % (inhibition of oedema) (carrageneen paw oedema [4]; [6]): 43%
- Volume of paw after injection of carrageneen (carrageneen paw oedema [4]; [6]): 2.13 ± 0.12 mL
- Reduction in % (oedema) (carrageneen paw oedema [5]; 100 mg/kg p.o.): 34%
- Volume of paw after injection of carrageneen (carrageneen paw oedema [5]; 100 mg/kg p.o.): 1.66 ± 0.10 mL
- Maximum temperature (rat ear skin temperature; 45 mg/kg s.c. alone): 29.6 ± 0.31^$$$ ° C.

Structure (SMILES): O=C(O)c1cccnc1 [NA, nicotinic acid]
- Maximum temperature (rat ear skin temperature; NA 15 mg/kg s.c.): 32.2 ± 0.42 °C
- maximal temperature increase from baseline (rat ear skin temperature; NA 15 mg/kg s.c., at 10 min): 2.32±0.37 °C
- maximal temperature increase in comparison with Solvent group (rat ear skin temperature; NA 15 mg/kg s.c., at 10 min): 2.57±0.43
- Increase, % (rat ear skin temperature; NA 15 mg/kg s.c., effect of NA = 100): 100%
